Experimental data taken from PMC3410962 (2012).

Target: prostate-specific membrane antigen (PSMA) (Homo sapiens, UniProt Q04609)
Test: HPLC-based inhibition assay of purified PSMA with PABGγG substrate
Assay type: biochemical

Sequence of prostate-specific membrane antigen (PSMA) (Q04609 whole entry): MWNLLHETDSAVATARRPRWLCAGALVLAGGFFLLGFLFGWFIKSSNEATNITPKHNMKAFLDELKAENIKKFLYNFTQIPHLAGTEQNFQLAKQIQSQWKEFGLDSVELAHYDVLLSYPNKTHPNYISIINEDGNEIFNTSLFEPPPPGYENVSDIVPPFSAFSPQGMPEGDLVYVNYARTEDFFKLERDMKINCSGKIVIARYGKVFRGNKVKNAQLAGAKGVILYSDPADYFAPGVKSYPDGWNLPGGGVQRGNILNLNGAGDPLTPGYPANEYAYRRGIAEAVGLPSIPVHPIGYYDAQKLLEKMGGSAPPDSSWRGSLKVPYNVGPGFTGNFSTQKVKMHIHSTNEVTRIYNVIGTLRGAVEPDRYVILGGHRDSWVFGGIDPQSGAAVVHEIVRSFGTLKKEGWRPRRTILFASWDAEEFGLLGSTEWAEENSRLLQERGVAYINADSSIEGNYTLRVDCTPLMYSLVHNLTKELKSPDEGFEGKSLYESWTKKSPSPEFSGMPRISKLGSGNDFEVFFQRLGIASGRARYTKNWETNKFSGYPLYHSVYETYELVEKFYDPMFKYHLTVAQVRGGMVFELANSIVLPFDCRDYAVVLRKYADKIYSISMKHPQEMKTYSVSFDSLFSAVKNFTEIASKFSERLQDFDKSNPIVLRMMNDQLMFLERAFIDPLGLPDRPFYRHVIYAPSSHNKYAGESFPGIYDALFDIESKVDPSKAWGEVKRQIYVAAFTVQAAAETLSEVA

## biotin-PEG12-CTT-54
  IC50: 10 nM
